Measured values from the NIST ThermoML archive (doi:10.1016/j.jct.2015.09.022).
Numbers after ± are expanded uncertainties.

Experiment: xn = mol fraction of the nth substance listed
Conditions: 100.7 kPa, Liquid; for viscosity: Falling or rolling sphere viscometry; for speed of sound: Frequency=3 MHz, Sing-around technique in a fixed-path interferometer; for mass density: Vibrating tube method

CCCC=O [butanal] + CCCC[n+]1ccn(C)c1.O=S(=O)([N-]S(=O)(=O)C(F)(F)F)C(F)(F)F
viscosity (313.15 K, x2 = 0): 0.36 ± 0.02 mPa·s | viscosity (313.15 K, x2 = 0.1056): 0.8 ± 0.05 mPa·s | viscosity (313.15 K, x2 = 0.2135): 1.53 ± 0.09 mPa·s | viscosity (313.15 K, x2 = 0.3088): 2.39 ± 0.15 mPa·s | viscosity (313.15 K, x2 = 0.4153): 3.69 ± 0.22 mPa·s | viscosity (313.15 K, x2 = 0.5025): 5.13 ± 0.31 mPa·s | viscosity (313.15 K, x2 = 0.5987): 6.82 ± 0.41 mPa·s | viscosity (313.15 K, x2 = 0.6852): 8.86 ± 0.54 mPa·s | viscosity (313.15 K, x2 = 0.7729): 11.8 ± 0.72 mPa·s | viscosity (313.15 K, x2 = 0.8852): 17.93 ± 1.1 mPa·s | speed of sound (313.15 K, x2 = 0): 1130.6 ± 1.4 m/s | speed of sound (313.15 K, x2 = 0.0222): 1129.3 ± 1.4 m/s | speed of sound (313.15 K, x2 = 0.0464): 1128.5 ± 1.4 m/s | speed of sound (313.15 K, x2 = 0.0748): 1127.9 ± 1.4 m/s | speed of sound (313.15 K, x2 = 0.1056): 1129.2 ± 1.4 m/s | speed of sound (313.15 K, x2 = 0.2135): 1136.5 ± 1.4 m/s | speed of sound (313.15 K, x2 = 0.3088): 1144.7 ± 1.4 m/s | speed of sound (313.15 K, x2 = 0.4153): 1152.6 ± 1.4 m/s | speed of sound (313.15 K, x2 = 0.5025): 1159.6 ± 1.4 m/s | speed of sound (313.15 K, x2 = 0.5987): 1166.8 ± 1.5 m/s | speed of sound (313.15 K, x2 = 0.6852): 1174.2 ± 1.5 m/s | speed of sound (313.15 K, x2 = 0.7729): 1181.8 ± 1.5 m/s | speed of sound (313.15 K, x2 = 0.8852): 1189.6 ± 1.5 m/s | mass density (313.15 K, x2 = 0): 781.37 ± 0.21 kg/m3 | mass density (313.15 K, x2 = 0.1056): 966.81 ± 0.35 kg/m3 | mass density (313.15 K, x2 = 0.2135): 1092.97 ± 0.31 kg/m3 | mass density (313.15 K, x2 = 0.3088): 1173.06 ± 0.32 kg/m3 | mass density (313.15 K, x2 = 0.4153): 1240.28 ± 0.36 kg/m3 | mass density (313.15 K, x2 = 0.5025): 1282.97 ± 0.39 kg/m3 | mass density (313.15 K, x2 = 0.5987): 1320.95 ± 0.43 kg/m3 | mass density (313.15 K, x2 = 0.6852): 1349.19 ± 0.47 kg/m3 | mass density (313.15 K, x2 = 0.7729): 1373.41 ± 0.51 kg/m3 | mass density (313.15 K, x2 = 0.8852): 1399.8 ± 0.56 kg/m3 | viscosity (318.15 K, x2 = 0): 0.35 ± 0.02 mPa·s | viscosity (318.15 K, x2 = 0.1056): 0.69 ± 0.04 mPa·s | viscosity (318.15 K, x2 = 0.2135): 1.23 ± 0.07 mPa·s | viscosity (318.15 K, x2 = 0.3088): 1.96 ± 0.12 mPa·s | viscosity (318.15 K, x2 = 0.4153): 2.96 ± 0.18 mPa·s | viscosity (318.15 K, x2 = 0.5025): 4.06 ± 0.25 mPa·s | viscosity (318.15 K, x2 = 0.5987): 5.62 ± 0.34 mPa·s | viscosity (318.15 K, x2 = 0.6852): 7.72 ± 0.47 mPa·s | viscosity (318.15 K, x2 = 0.7729): 10.43 ± 0.63 mPa·s | viscosity (318.15 K, x2 = 0.8852): 15.49 ± 0.94 mPa·s | speed of sound (318.15 K, x2 = 0): 1109.6 ± 1.4 m/s | speed of sound (318.15 K, x2 = 0.0222): 1108.4 ± 1.4 m/s | speed of sound (318.15 K, x2 = 0.0464): 1107.7 ± 1.4 m/s | speed of sound (318.15 K, x2 = 0.0748): 1107 ± 1.4 m/s | speed of sound (318.15 K, x2 = 0.1056): 1109 ± 1.4 m/s | speed of sound (318.15 K, x2 = 0.2135): 1118.4 ± 1.4 m/s | speed of sound (318.15 K, x2 = 0.3088): 1128.2 ± 1.4 m/s | speed of sound (318.15 K, x2 = 0.4153): 1137.7 ± 1.4 m/s | speed of sound (318.15 K, x2 = 0.5025): 1145.2 ± 1.5 m/s | speed of sound (318.15 K, x2 = 0.5987): 1153.1 ± 1.5 m/s | speed of sound (318.15 K, x2 = 0.6852): 1162.1 ± 1.5 m/s | speed of sound (318.15 K, x2 = 0.7729): 1170.1 ± 1.5 m/s | speed of sound (318.15 K, x2 = 0.8852): 1179.3 ± 1.5 m/s | mass density (318.15 K, x2 = 0): 776.39 ± 0.21 kg/m3 | mass density (318.15 K, x2 = 0.1056): 961.43 ± 0.35 kg/m3 | mass density (318.15 K, x2 = 0.2135): 1088.71 ± 0.31 kg/m3 | mass density (318.15 K, x2 = 0.3088): 1169.26 ± 0.31 kg/m3 | mass density (318.15 K, x2 = 0.4153): 1236.78 ± 0.36 kg/m3 | mass density (318.15 K, x2 = 0.5025): 1279.56 ± 0.39 kg/m3 | mass density (318.15 K, x2 = 0.5987): 1317.62 ± 0.43 kg/m3 | mass density (318.15 K, x2 = 0.6852): 1345.51 ± 0.47 kg/m3 | mass density (318.15 K, x2 = 0.7729): 1369.39 ± 0.51 kg/m3 | mass density (318.15 K, x2 = 0.8852): 1395.55 ± 0.55 kg/m3 | viscosity (323.15 K, x2 = 0): 0.32 ± 0.02 mPa·s | viscosity (323.15 K, x2 = 0.1056): 0.56 ± 0.03 mPa·s | viscosity (323.15 K, x2 = 0.2135): 0.94 ± 0.06 mPa·s | viscosity (323.15 K, x2 = 0.3088): 1.43 ± 0.09 mPa·s | viscosity (323.15 K, x2 = 0.4153): 2.24 ± 0.14 mPa·s | viscosity (323.15 K, x2 = 0.5025): 3.07 ± 0.19 mPa·s | viscosity (323.15 K, x2 = 0.5987): 4.43 ± 0.27 mPa·s | viscosity (323.15 K, x2 = 0.6852): 6.21 ± 0.38 mPa·s | viscosity (323.15 K, x2 = 0.7729): 8.42 ± 0.51 mPa·s | viscosity (323.15 K, x2 = 0.8852): 12.99 ± 0.79 mPa·s | speed of sound (323.15 K, x2 = 0): 1088.8 ± 1.4 m/s | speed of sound (323.15 K, x2 = 0.0222): 1087.5 ± 1.4 m/s | speed of sound (323.15 K, x2 = 0.0464): 1086.7 ± 1.4 m/s | speed of sound (323.15 K, x2 = 0.0748): 1086.1 ± 1.4 m/s | speed of sound (323.15 K, x2 = 0.1056): 1087.8 ± 1.4 m/s | speed of sound (323.15 K, x2 = 0.2135): 1099.2 ± 1.4 m/s | speed of sound (323.15 K, x2 = 0.3088): 1110.2 ± 1.4 m/s | speed of sound (323.15 K, x2 = 0.4153): 1120.3 ± 1.4 m/s | speed of sound (323.15 K, x2 = 0.5025): 1128.5 ± 1.5 m/s | speed of sound (323.15 K, x2 = 0.5987): 1138.5 ± 1.5 m/s | speed of sound (323.15 K, x2 = 0.6852): 1147.2 ± 1.5 m/s | speed of sound (323.15 K, x2 = 0.7729): 1156.5 ± 1.5 m/s | speed of sound (323.15 K, x2 = 0.8852): 1166.2 ± 1.5 m/s | mass density (323.15 K, x2 = 0): 771.3 ± 0.22 kg/m3 | mass density (323.15 K, x2 = 0.1056): 957.54 ± 0.6 kg/m3 | mass density (323.15 K, x2 = 0.2135): 1084.6 ± 0.42 kg/m3 | mass density (323.15 K, x2 = 0.3088): 1165.17 ± 0.37 kg/m3 | mass density (323.15 K, x2 = 0.4153): 1232.87 ± 0.39 kg/m3 | mass density (323.15 K, x2 = 0.5025): 1275.6 ± 0.41 kg/m3 | mass density (323.15 K, x2 = 0.5987): 1313.47 ± 0.44 kg/m3 | mass density (323.15 K, x2 = 0.6852): 1341.63 ± 0.47 kg/m3 | mass density (323.15 K, x2 = 0.7729): 1365.48 ± 0.51 kg/m3 | mass density (323.15 K, x2 = 0.8852): 1391.08 ± 0.55 kg/m3
